Test results as given in patent publication US20250051276A1 (priority 2021, published 2025).

How the values were obtained:
rat cortical neurons = experiment: Neurite outgrowth in primary neuronal cultures assay; type: cell-based; parameters: key: A: Statistically significant mean increase as a percent of DMSO control at 10 μM or less; B: No statistically significant mean increase as a percent of DMSO control at 10 μM or less; conditions: 72 h, vs DMSO control, 10 μM or less
Description: Neurite Outgrowth in Primary Neuronal Cultures Assay. Changes in the pattern of neurite outgrowth have been implicated in psychiatric and neurodegenerative disorders as well as traumatic injuries. The discovery of new compounds that can positively affect neuritogenesis are important for developing new therapeutics for neurological diseases. Measurement of neurite outgrowth of rat cortical neurons using an automated image-based assay was used to determine the neuroplastic effects of the compounds of the present disclosure. The neurite outgrowth assay was performed at Neurofit SAS (France) as described below.
Pregnant Wistar rats (Janvier; France) were used for the study. They were delivered 6 days before their use. Upon arrival at Neurofit animal facility, they were housed one per cage and maintained in a room with controlled temperature (21-22° C.) and a reversed light-dark cycle (12 h/12 h; lights on: 17:30-05:30; lights off: 05:30-17:30) with food and water available ad libitum.
Female Wistar rats of 17 days gestation were killed by cervical dislocation and the fetuses were removed from the uterus. Their brains were placed in ice-cold medium of Leibovitz (L15, Gibco, Fisher bioblock, France). Cortices were dissected and meninges were carefully removed. The cortical neurons were dissociated by trypsinization for 30 min at 37° C. (trypsin-EDTA, Gibco) in presence of 0.1 mg/ml DNAse I (Roche, France). The reaction was stopped by addition of Dulbecco's Modified Eagle Medium (DMEM; Gibco) with 10% of fetal bovine serum (FBS; Gibco). The suspension was triturated with a 10-ml pipette and using a needle syringe 21 G and centrifuged at 350×g for 10 min at room temperature. The pellet of dissociated cells was resuspended in a medium consisting of Neurobasal (Gibco) supplemented with 2% B27 supplement (Gibco), 0.5 mM L-Glutamine (Gibco), an antibiotic-antimicotic mixture. Viable cells were counted in a Neubauer cytometer using the trypan blue exclusion test (Sigma). Cells were seeded at a density of 10000 cells per well in 96-well plate (Costar) precoated with poly-L-lysine. Test compound at different concentrations were added to the cultures. Donepezil (positive control) was tested at 250 nM.
After 72 h (3 days) of plating, cultures were fixed with paraformaldehyde in PBS (4%, Sigma) for 30 min at 4° C. Then, cells were successively permeabilized with 0.1% Triton X100 for 30 min, saturated with PBS containing 3% of BSA and were incubated 1 h with anti-beta III tubulin antibody (Sigma) at 1/10 000 in PBS containing 0.5% of BSA. Cells were washed three times with PBS containing 0.5% of BSA, and they were incubated 1 h with goat anti-mouse antibody coupled with AF488 (Invitrogen A11001) diluted at 1/1000 in PBS containing 0.5% of BSA. Finally, nuclei were staining with DAPI 1 mg/ml at 1/1000 in PBS containing 0.5% of BSA. After rinsing with PBS, the plate was filmed and neurite networks were examined and analyzed using High-Content Screening (CellInsight, Thermo Scientific). The average number of neurites per neuron and the average total length of neurites per neuron were the main parameters analyzed. Analysis of data was performed using analysis of variance (ANOVA). The Fisher's Protected Least Significant Difference test was used for multiple comparisons. A p value ≤0.05 was considered significant. The software used is StatView 5.0 from SAS Institut.

5-HT2A [1] = target: T1, 5-HT2A (Homo sapiens, UniProt P28223); experiment: Serotonin 5-HT2A in vitro cellular IPOne agonism assay; type: cell-based; parameters: host or cells: CHO-K1; conditions: CHO-K1 cells, IPOne HTRF, agonist mode
Experimental: (§1) Serotonin 5-HT2A In Vitro Cellular IPOne Agonism Assay. The 5-HT2A IPOne HTRF assay was performed at Epics Therapeutics S.A. (Belgium, FAST-0505I) using conventional methods. Briefly, CHO-K1 cells expressing human recombinant 5-HT2A receptor grown to mid-log phase in culture media without antibiotics were detached with PBS-EDTA, centrifuged, and resuspended in medium without antibiotics buffer. 20,000 cells were distributed in a 96 well plate and incubated overnight at 37° C. with 5% CO2.
For agonist testing, the medium was removed and 20 μl of assay buffer plus 20 μl of test compound or reference agonist are added in each well. The plate is incubated for 60 min. at 37° C. with 5% CO2.
(§2) After addition of the lysis buffer containing IP1-d2 and anti-IP1 cryptate detection reagents, plates were incubated 1-hour at room temperature, and fluorescence ratios were measured according to the manufacturer specification, with the HTRF kit.

5-HT2A [2] = target: T1, 5-HT2A; experiment: Serotonin 5-HT2A in vitro cellular IPOne antagonism assay; type: cell-based; parameters: host or cells: CHO-K1; conditions: CHO-K1 cells, IPOne HTRF, reference agonist a-Me-5HT; read-out: 5-HT2A IPOne Antagonist Activity
Experimental: as §1, with “IPOne Antagonism” for “IPOne Agonism”, “5-HT2A TPOne” for “5-HT2A IPOne”, “FAST-0505I) in antagonism mode” for “FAST-0505I)”, “with […]” for “with 5%”
For antagonist testing, a reference agonist a-Me-5HT was added and fluorescence signal monitored for several minutes, followed by addition of 20 μl of assay buffer plus 20 μl of test compound or reference antagonist ketanserin, in each well. The plate was incubated for 60 min. at 37° C. with 5% CO2.
as §2

5-HT2A [3] = target: T1, 5-HT2A; experiment: Serotonin 5-HT2A in vitro radioligand binding competition assay; parameters: purchased Epics Therapeutics S.A. (Belgium) FAST-0505B; host or cells: membrane extracts; conditions: radiotracer [3H]-DOI, membrane extracts
Experimental: Serotonin 5-HT2A In Vitro Radioligand Binding Competition Assay. The 5-HT2A radioligand binding competition assay was performed at Epics Therapeutics S.A. (Belgium, FAST-0505B) using conventional methods. Briefly, competition binding was performed in duplicate in the wells of a 96 well plate (Master Block, Greiner, 786201) containing binding buffer (optimized for each receptor), membrane extracts (amount of protein/well optimized for each receptor), radiotracer [^3H]-DOI (final concentration optimized for each receptor) and test compound. Nonspecific binding was determined by co-incubation with 200-fold excess of cold competitor. The samples were incubated in a final volume of 0.1 ml at a temperature and for a duration optimized for each receptor and then filtered over filter plates. Filters were washed six times with 0.5 ml of ice-cold washing buffer (optimized for each receptor) and 50 µl of Microscint 20 (Packard) were added in each well. The plates were incubated 15 min on an orbital shaker and then counted with a TopCount™ for 1 min/well.

T1 sequence (P28223 whole entry): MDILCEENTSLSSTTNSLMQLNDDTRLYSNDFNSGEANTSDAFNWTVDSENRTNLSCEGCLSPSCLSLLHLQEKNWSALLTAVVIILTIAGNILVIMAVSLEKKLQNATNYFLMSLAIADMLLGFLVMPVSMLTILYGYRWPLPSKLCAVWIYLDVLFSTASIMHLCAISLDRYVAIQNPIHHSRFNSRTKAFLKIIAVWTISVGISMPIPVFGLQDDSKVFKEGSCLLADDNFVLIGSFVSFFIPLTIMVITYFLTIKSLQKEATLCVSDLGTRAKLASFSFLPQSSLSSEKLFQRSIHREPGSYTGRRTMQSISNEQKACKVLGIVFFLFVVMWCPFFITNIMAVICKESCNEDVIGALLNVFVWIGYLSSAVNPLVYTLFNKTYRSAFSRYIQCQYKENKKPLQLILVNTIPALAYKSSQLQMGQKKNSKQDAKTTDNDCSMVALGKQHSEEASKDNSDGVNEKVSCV

Structure (SMILES) | Increase in Neurite Length (rat cortical neurons) | Increase in Neurite Number (rat cortical neurons) | Increase in Number of Branchpoints (rat cortical neurons) | EC50 (5-HT2A [1]) [µM] | IC50 (5-HT2A [2]) [nM] | IC50 (5-HT2A [3]) [nM]
CN[C@H](C)Cn1ccc2cc(OCc3ccccc3)ccc21 [Compound 4, (R)-1-(5-(benzyloxy)-1H-indol-1-yl)-N-methylpropan-2-amine] | A | A | A | > 10 | 101 to 1000 | 1000 to 10000
C[C@H](Cn1ccc2cc(OCc3cccc(F)c3)ccc21)N(C)C [Compound 9, (R)-1-(5-((3-fluorobenzyl)oxy)-1H-indol-1-yl)-N,N-dimethylpropan-2-amine] | A | A | A | > 10 | 10 to 100 | 101 to 1000
C[C@H](Cn1ccc2cc(OCc3ccc(F)cc3)ccc21)N(C)C [Compound 8, (R)-1-(5-((4-fluorobenzyl)oxy)-1H-indol-1-yl)-N,N-dimethylpropan-2-amine] | A | A | A | > 10 | < 10 | 10 to 100
C[C@@H](N)Cn1ccc2cc(OCc3ccccc3F)ccc21 [Compound 7, (R)-1-(5-((2-fluorobenzyl)oxy)-1H-indol-1-yl)propan-2-amine] | B | A | A | 1 to 10 |  | 1000 to 10000
C[C@H](Cn1ccc2cc(OCc3ccccc3)ccc21)N(C)C [Compound 3, (R)-1-(5-(benzyloxy)-1H-indol-1-yl)-N,N-dimethylpropan-2-amine] | A | B | B | > 10 | 10 to 100 | 101 to 1000
C[C@H](Cn1ccc2cc(OCc3ccccc3F)ccc21)N(C)C [Compound 10, (R)-1-(5-((2-fluorobenzyl)oxy)-1H-indol-1-yl)-N,N-dimethylpropan-2-amine] | A | A | A | > 10 | 101 to 1000 | 10 to 100
CCN(CC)[C@H](C)Cn1ccc2cc(OCc3ccccc3)ccc21 [Compound 11, (R)-1-(5-(benzyloxy)-1H-indol-1-yl)-N,N-diethylpropan-2-amine] | A | A | A | > 10 | 101 to 1000 | 1000 to 10000
C[C@H](Cn1ccc2nc(OCc3ccccc3)ccc21)N(C)C [Compound 1, (R)-1-(5-(benzyloxy)-1H-pyrrolo[3,2-b]pyridin-1-yl)-N,N-dimethylpropan-2-amine] | A | A | A | > 10 | 101 to 1000 | 101 to 1000
C[C@@H](N)Cn1ccc2cc(OCc3cccc(F)c3)ccc21 [Compound 6, (R)-1-(5-((3-fluorobenzyl)oxy)-1H-indol-1-yl)propan-2-amine] | A | B | A | 1 to 10 | 101 to 1000 | 101 to 1000
C[C@H](Cn1ccc2cc(OCc3ccccc3)ccc21)N1CCCC1 [Compound 12, (R)-5-(benzyloxy)-1-(2-(pyrrolidin-1-yl)propyl)-1H-indole] | A | A | B | > 10 | 101 to 1000 | 1000 to 10000
C[C@@H](N)Cn1ccc2nc(OCc3ccccc3)ccc21 [Compound 2, (R)-1-(5-(benzyloxy)-1H-pyrrolo[3,2-b]pyridin-1-yl)propan-2-amine] |  |  |  | > 10 |  | > 10000
